These results are taken from US6482799B1, “Self-preserving multipurpose ophthalmic solutions incorporating a polypeptide antimicrobial” (The Regents of the University of California, priority 1999, dated 2002).

Data set [1] is described as follows: Toxicity study, intraperitoneal administration. How it is done:
The objective of this study was to determine if the treatment regimen proposed for the efficacy study of the defensin formulations caused target organ toxicity. This study is not intended to support application for research or marketing permits for products regulated by governmental agencies. The purpose of this study is to provide range-finding data is therefore, not within the scope of Good Laboratory Practice Guidelines.
Mice were treated by intravaginal administration twice daily at ˜12 hour intervals administered on Days 1 through 4. Mice were treated intraperitoneally three times on Day 1 at ˜4 hour intervals, and twice daily at ˜12 hour intervals administered on days 2 through 4.
Dosing volumes were 0.1 mL/mouse (intravaginal), 0.1 mL/mouse (intraperitoneal), and 20 μL/rabbit. The study lasted 5 days, with day 1 the first day of dose administration.
The dose formulations were supplied in pyrogen-free saline.

For data set [2] the following is noted: 4.97 mg dry powder. How it is done: 4.97 mg of L-IND #036752, stored at 4° C. in a desiccation) was weighed into a polypropylene microfuge and dissolved in 0.01% acetic acid.
Data set [3] deals with Staphylococcus aureus (ATCC 6538). Put plainly: Short-term (14 day) stability in commercial plastic container (RENU) by S. aureus bioassay. The class given is cell-based. The settings on record: for stability of antimicrobial activity: room temperature, plastic container. The text has this:
The objective of this study was to determine if there is significant and rapid binding of L-IND to a typical plastic bottle such as the type to be used to store, ship and use the lens-care solution. The 2-week study reported here was a range-finding task to determine if there was substantial binding and incompatibility, and its results helped plan a more extensive stability study over a period of 8 months.
The two commercial containers were used that previously contained the commercial product RENU®, a multi-purpose solution for all soft contact lenses not requiring enzymatic cleaning, and manufactured by Bausch & Lomb. These containers hold a volume of 89 ml and came with a dispenser that precludes the removal of the cap, which aids in keeping the solution sterile. The lot number of the RENU® lens-care solutions used was GE7089, having an expiration date of May 1999.
The containers were prepared for the L-IND stability study by discarding the RENU® lens care solution, and by rinsing, 3 times with either sterile 10 mM sodium phosphate buffer (SP), pH 7.4 or 10 mM SP supplemented with 0.85 % (w/v) sodium chloride (SP+NaCl).
The test article, L-IND peptide solution, was prepared fresh from dry L-IND powder (Lot #036752). Two solutions were prepared for evaluation, to a final concentration of 50 μg/ml in 50 ml of 10 mM SP and 10 mM SP+NaCl. For this purpose a stock solution was prepared by weighing out 5 mg of L-IND and dissolving it in 10 ml of 0.01% acetic acid in a pyrogen free sterile Teflon container. A 10-fold dilution of this stock was then made by transferring 5 ml of the stock solution to each of the containers to which was then added 45 ml of either 10 mM SP or 10 mM SP+NaCl. After mixing by slowly shaking, the solutions were maintained at room temperature for the duration of the study.
It should be noted that the 5 ml of the L-IND stock solution was added to the empty containers. This was followed by addition of 45 ml of the respective buffer systems. The addition of peptide concentrate to the empty containers would enhance binding of the peptide to the plastic. Had excessive binding resulted, a less stringent procedure of adding the peptide concentrate to bottles prefilled with buffer would have been adopted in subsequent experiments.
The stability of L-IND in each container was determined at times 0 h, 24 h, 48 h, 72 h, 7 d, 10 d and 14 d. At each sampling point, the contents of each of the two containers was shaken gently 3 times in a back and forth rocking motion. Three aliquots of about 1.5 ml of the solutions containing L-IND were removed. One aliquot was used immediately for determining the stability of L-IND by exposure to Staphylococcus aureus (see below). The other aliquots were stored in the freezer (−20° C.). One of these aliquots was kept until the end of the monitoring period, which was 14 days. At that time all the frozen samples were thawed and tested for stability of L-IND by bioassay.
Staphylococcus aureus (ATCC 6538) obtained directly from the American Type Culture Collection was the test organism. The bacterium was grown overnight at 37° C. in 5 ml of Mueller-Hinton (MH) broth on a shaking platform (180 rpm). The overnight culture was washed 2 times in sterile saline by centrifugation at 7,000 RPM. One half of the cells were then resuspended in 2.5 ml of sterile 10 mM SP, while the other half was resuspended in 2.5 ml of 10 mM SP+NaCl. Each washed culture was then diluted to give an estimated 10^7 colony-forming-units (CFU) per […].
S. aureus was exposed at room temperature to each of the samples, removed at the different time points, for 0, 15 and 60 minutes, and for 4 hours. For this purpose 0.25 ml of each L-IND solution was dispensed into wells of a 96-well polypropylene titer plate. A volume of 20 μl of the 10× washed bacterial suspension was then added to each well. The estimated cell density thus obtained per well was about 10^6 CFU/ml. […]

For data set [4], the system named is P. aeruginosa (ATCC 27853). Put plainly: Protocol 3 time-dependent antimicrobial activity at one dose level. The class given is cell-based, Pseudomonas aeruginosa.

Consider `CC[C@H](C)[C@H](N)C(=O)N[C@@H](CC(C)C)C(=O)N1CCC[C@H]1C(=O)N[C@@H](Cc1c[nH]c2ccccc12)C(=O)N[C@@H](CCCCN)C(=O)N[C@@H](Cc1c[nH]c2ccccc12)C(=O)N1CCC[C@H]1C(=O)N[C@@H](Cc1c[nH]c2ccccc12)C(=O)N[C@@H](Cc1c[nH]c2ccccc12)C(=O)N1CCC[C@H]1C(=O)N[C@@H](Cc1c[nH]c2ccccc12)C(=O)N[C@@H](CCCNC(=N)N)C(=O)N[C@@H](CCCNC(=N)N)C(N)=O` [L-indolicidin, H2N-ILPWKWPWWPWRR-CONH2], for which the gross alterations entry in data set [1] (0.1 mL/mouse at 10, 100 or 1000 μg/mL, BPN-A-amide at 30, 300 or 3000 μg/mL) was “no gross alternations”. Further, the “deaths or clinical signs of toxicity” value in data set [1] (L-indolicidin 10, 100 or 1000 μg/mL, D-indolicidin 10 or 1000 μ/mL, All-Phe-indolicidin 10 μg/mL, BPN-A-amide 30, 300 or 3000 μg/mL) was “no deaths or biologically significant clinical signs of toxicity”. In addition, the “Solubility in 0.01% acetic acid” value in data set [2] is “went into solution immediately”. Besides, the “stability of antimicrobial activity” value in data set [3] (50 μg/ml in 10 mM SP+NaCl (0.85%), 14 days) is given as “stable”; in data set [3] (50 μg/ml in 10 mM SP, 14 days) it was “stable”. Also, in data set [3] (50 μg/ml, 14 days), the “adsorption to the plastic container” value is recorded as “no obvious or dramatic adsorption”. The log kill result in data set [3] (50 μg/ml, frozen samples, 10 mM SP+NaCl, 4 hours exposure) is recorded as “about 1.5 log”; in data set [3] (50 μg/ml, frozen, 10 mM SP, 60 minute exposure), 6 log; in data set [3] (50 μg/ml, unfrozen, 10 mM SP+NaCl (0.85%), 4 hours exposure) it was ~1 log; in data set [3] (50 μg/ml, unfrozen, 10 mM SP, 4 hours exposure) it was 4 log. In addition, the log cell reduction in data set [4] (50 μg/ml, 10 mM sodium phosphate buffer, as early as after 1 minute exposure, initial 2.0×10^6 CFU/ml) is on record as ~6 log. The survival in data set [4] (50 μg/ml, 10 mM sodium phosphate buffer, exposure time 0 hr) was 2.4 × 10^6 CFU/ml; in data set [4] (50 μg/ml, 10 mM sodium phosphate buffer, exposure time 1 hr), 1.6 × 10^6 CFU/ml; in data set [4] (50 μg/ml, 10 mM sodium phosphate buffer, exposure time 2 hr) it was 1.1 × 10^5 CFU/ml; in data set [4] (50 μg/ml, 10 mM sodium phosphate buffer, exposure time 4 hr), 0 CFU/ml; in data set [4] (50 μg/ml, 10 mM sodium phosphate buffer, exposure time 6 hr), 0 CFU/ml; in data set [4] (50 μg/ml, 10 mM sodium phosphate buffer, exposure time 12 hr) it was 0 CFU/ml. The survival is reported as 100% in data set [4] (50 μg/ml, 10 mM sodium phosphate buffer, up to 15 minutes) and “no detectable survival” in data set [4] (50 μ/ml, 10 mM sodium phosphate buffer, after 4 hours exposure). In addition, the killing entry in data set [4] (50 μg/ml, 100 mM sodium phosphate buffer, exposures of between 15 and 60 min) is reported as “virtually complete killing”.
